Laboratory results: patent publication US20260285850A1, “SUBSTITUTED OXAZOLIDINONES AND IMIDAZOLINONES AS HERBICIDES” (FMC CORPORATION, priority 2023, published 2026)

What was measured:
Type in all cases: in vivo
[1] = test system: ducksalad (Heteranthera limosa); assay: Test B flooded paddy test, visual plant response rating 0-100; conditions: 250 g ai/ha, Flood, applied to paddy water, evaluated after 13 days
Outline: (§1)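 Visual evaluation after 13 days. Water-applied treatment, 3 cm flood depth held constant, plants at 2-leaf stage at treatment.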

[2] = test system: sedge, umbrella (small-flower umbrella sedge, Cyperus difformis); assay: as above; conditions: 250 g ai/ha, Flood, applied to paddy water, evaluated after 13 days
Outline: as §1

rice (Oryza sativa) = assay: as above; conditions: 250 g ai/ha, Flood, applied to paddy water, evaluated after 13 days
Outline: as §1

[3] = test system: barnyardgrass (Echinochloa crusgalli); assay: as above; conditions: 250 g ai/ha, Flood, applied to paddy water, evaluated after 13 days
Outline: as §1

soybean (Glycine max) [4] = assay: Test A preemergence soil spray, visual injury rating 0-100; conditions: 10 days
Outline: (§2)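 Preemergence directed soil spray or postemergence spray (2-10 cm, 1-2 leaf); loam/sand mix; compound in non-phytotoxic solvent + surfactant. Greenhouse, 10 d. Visual injury vs untreated, 0 = none, 100 = complete control.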

[5] = test system: barnyardgrass (Echinochloa crus-galli); assay: as above; conditions: 10 days
Outline: as §2

[6] = test system: oat, wild (wild oat, Avena fatua); assay: as above; conditions: 10 days
Outline: as §2

[7] = test system: green foxtail (Setaria viridis); assay: as above; conditions: 10 days
Outline: as §2

[8] = test system: palmer (palmer amaranth, palmer pigweed, Amaranthus palmeri); assay: as above; conditions: 10 days
Outline: as §2

[9] = test system: ryegrass, Italian (italian ryegrass, Lolium multiflorum); assay: as above; conditions: 10 days
Outline: as §2

[10] = test system: wheat (Triticum aestivum); assay: as above; conditions: 10 days
Outline: as §2

kochia (Bassia scoparia) [11] = assay: as above; conditions: 10 days
Outline: as §2

corn (Zea mays) [12] = assay: as above; conditions: 10 days
Outline: as §2

[13] = test system: ragweed (common ragweed, Ambrosia artemisiifolia); assay: as above; conditions: 10 days
Outline: as §2

[14] = test system: blackgrass (Alopecurus myosuroides); assay: as above; conditions: 10 days
Outline: as §2

soybean (Glycine max) [15] = assay: Test A postemergence application, visual injury rating 0-100
Outline: as §2

[16] = test system: barnyardgrass (Echinochloa crus-galli); assay: as above
Outline: as §2

[17] = test system: oat, wild (wild oat, Avena fatua); assay: as above
Outline: as §2

[18] = test system: green foxtail (Setaria viridis); assay: as above
Outline: as §2

[19] = test system: palmer (palmer amaranth, palmer pigweed, Amaranthus palmeri); assay: as above
Outline: as §2

[20] = test system: ryegrass, Italian (italian ryegrass, Lolium multiflorum); assay: as above
Outline: as §2

[21] = test system: wheat (Triticum aestivum); assay: as above
Outline: as §2

[22] = test system: galium (catchweed bedstraw, Galium aparine); assay: as above; conditions: Postemergence, 16 g ai/ha, greenhouse 10 days; 0 no effect, 100 complete control
Outline: as §2

kochia (Bassia scoparia) [23] = assay: as above
Outline: as §2

[24] = test system: horseweed (Erigeron canadensis); assay: as above
Outline: as §2

corn (Zea mays) [25] = assay: as above
Outline: as §2

[26] = test system: ragweed (common ragweed, Ambrosia artemisiifolia); assay: as above
Outline: as §2

[27] = test system: blackgrass (Alopecurus myosuroides); assay: as above
Outline: as §2

[28] = 62 g ai/ha, 0 = no effect, 100 = complete control
[29] = 62 g ai/ha, postemergence, 10 days, 0 = no effect, 100 = complete control
[30] = Postemergence, 16 g ai/ha, greenhouse 10 days, 0 no effect, 100 complete control

CC1(C(=O)NC2CC=C(C(=O)OCC(F)F)C2)CN(c2cc(F)cc(F)c2)C(=O)O1 (stereo not drawn) [Compound 151]
20: Barnyardgrass plant response rating (0-100) [16, 29]
0: Plant response rating, Ducksalad (0 to 100 scale, 0 is no effect and 100 is complete control) [1] | Plant response rating, Sedge, Umbrella (0 to 100 scale, 0 is no effect and 100 is complete control) [2] | Plant response rating, Rice (0 to 100 scale, 0 is no effect and 100 is complete control) (rice (Oryza sativa)) | Plant response rating, Barnyardgrass (0 to 100 scale, 0 is no effect and 100 is complete control) [3] | Soybean plant response rating (soybean (Glycine max) [4]; 16 g ai/ha, 0 to 100 scale) | Soybean plant response rating (0-100) (soybean (Glycine max) [4]; [28]) | Barnyardgrass plant response rating ([5]; 16 g ai/ha, 0 to 100 scale) | Barnyardgrass plant response rating (0-100) [5, 28] | Oat, Wild plant response rating ([6]; 16 g ai/ha, 0 to 100 scale) | Oat, Wild plant response rating (0-100) [6, 28] | Foxtail, Green plant response rating ([7]; 16 g ai/ha, 0 to 100 scale) | Foxtail, Green plant response rating (0-100) [7, 28] | Pigweed, Palmer plant response rating ([8]; 16 g ai/ha, 0 to 100 scale) | Pigweed, Palmer plant response rating (0-100) [8, 28] | Ryegrass, Italian plant response rating ([9]; 16 g ai/ha, 0 to 100 scale) | Ryegrass, Italian plant response rating (0-100) [9, 28] | Wheat plant response rating ([10]; 16 g ai/ha, 0 to 100 scale) | Wheat plant response rating (0-100) [10, 28] | Kochia plant response rating (kochia (Bassia scoparia) [11]; 16 g ai/ha, 0 to 100 scale) | Kochia plant response rating (0-100) (kochia (Bassia scoparia) [11]; [28]) | Corn plant response rating (corn (Zea mays) [12]; 16 g ai/ha, 0 to 100 scale) | Corn plant response rating (0-100) (corn (Zea mays) [12]; [28]) | Ragweed plant response rating ([13]; 16 g ai/ha, 0 to 100 scale) | Ragweed plant response rating (0-100) [13, 28] | Blackgrass plant response rating ([14]; 16 g ai/ha, 0 to 100 scale) | Blackgrass plant response rating (0-100) [14, 28] | Soybean plant response rating (0-100) (soybean (Glycine max) [15]; [29]) | Soybean plant response rating (0 to 100 scale) (soybean (Glycine max) [15]; [30]) | Barnyardgrass plant response rating (0 to 100 scale) [16, 30] | Oat, Wild plant response rating (0-100) [17, 29] | Oat, Wild plant response rating (0 to 100 scale) [17, 30] | Foxtail, Green plant response rating (0-100) [18, 29] | Foxtail, Green plant response rating (0 to 100 scale) [18, 30] | Pigweed, Palmer plant response rating (0-100) [19, 29] | Pigweed, Palmer plant response rating (0 to 100 scale) [19, 30] | Ryegrass, Italian plant response rating (0-100) [20, 29] | Ryegrass, Italian plant response rating (0 to 100 scale) [20, 30] | Wheat plant response rating (0-100) [21, 29] | Wheat plant response rating (0 to 100 scale) [21, 30] | Galium plant response rating (0 to 100 scale) [22] | Kochia plant response rating (0-100) (kochia (Bassia scoparia) [23]; [29]) | Kochia plant response rating (0 to 100 scale) (kochia (Bassia scoparia) [23]; [30]) | Horseweed plant response rating (0-100) [24, 29] | Horseweed plant response rating (0 to 100 scale) [24, 30] | Corn plant response rating (0-100) (corn (Zea mays) [25]; [29]) | Corn plant response rating (0 to 100 scale) (corn (Zea mays) [25]; [30]) | Ragweed plant response rating (0-100) [26, 29] | Ragweed plant response rating (0 to 100 scale) [26, 30] | Blackgrass plant response rating (0-100) [27, 29] | Blackgrass plant response rating (0 to 100 scale) [27, 30]
